Data from patent US20260256792A1, “TREATMENT OF CHRONIC SPONTANEOUS URTICARIA BY ADMINISTERING (R)-2-[3-[4-AMINO-3-(2-FLUORO-4-PHENOXY-PHENYL)PYRAZOLO[3,4-D]PYRIMIDIN-1-YL]PIPERIDINE-1-CARBONYL]-4-METHYL-4-[4-(OXETAN-3-YL)PIPERAZIN-1-YL]PENT-2-ENENITRILE” (priority 2023, published 2026).

Tested on: moderate-to-severe chronic spontaneous urticaria (CSU)
Test: Phase 2 CSU study: urticaria activity score over 7 days (UAS7)
Type: in vivo, human
Parameters: key to UAS7 Median / UAS7 Change from baseline Median / UAS7 change from baseline, Q1 / UAS7 change from baseline, Q3 / UAS7 change from baseline, Max / UAS7 Change from baseline LS Mean (SE): UAS7 points; daily UAS score ranges 0–6 points/day, over 7 days
Source text: The study comprises a 12 week, randomized, double-blind, placebo-controlled, multi-center, dose-ranging efficacy and safety phase, followed by a 40 week open label extension (OLE) phase (see FIG. 1). The study consists of three phases and an optional OLE phase. […] Clinically, CSU is characterized by the spontaneous and recurrent appearance of pruritic hives. The proposed primary endpoints were the UAS7 at Week 12 in EU and EU reference countries and the ISS7 in the US. Regardless of where a participant was from, all assessments were the same. The UAS7 score is a composite score containing both the HSS7 and the ISS7. This allowed a global assessment of the two key components of urticaria: hives and itch. […] The UAS is a validated PRO measure. […] The daily UAS scores range from 0 to 6 point/day. […] Patients were to complete the UAS using the e-diary. […] The following secondary endpoints were to be analyzed using the same approach as for the primary endpoint: • Change from baseline in UAS7 at Week 4 • Change from baseline in UAS7 at Week 12 (for US and US reference countries) • Change from baseline in ISS7 at Week 12 (except US and US reference countries) • Change from baseline in HSS7 at Week 12 The following responder secondary endpoints were to be analyzed using the Cochran-Mantel-Haenszel test adjusted by region: • Proportion of participants with UAS7<6 at Week 12 • Proportion of participants with UAS7=0 at Week 12 Participants who received selected prohibited medications and/or rescue medications were to be considered as non-responders for time points after the medication usage. For other participants, all available data including those collected during the off-treatment period were to be used to determine the responder/non-responder status. Missing data were to be considered as non-responders.

[1] = Week 3, 400 mg TID, Omalizumab-Naïve
[2] = Week 3, 400 mg TID, Prior Omalizumab Use
[3] = Week 3, 400 mg TID, omalizumab-naive participants
[4] = Week 4, 400 mg BID, ITT population
[5] = Week 4, 400 mg BID, Omalizumab-Naïve
[6] = Week 4, 400 mg BID, Prior Omalizumab Use
[7] = Week 4, 400 mg BID, omalizumab-naive participants
[8] = Week 4, 400 mg QPM, ITT population
[9] = Week 4, 400 mg QPM, Omalizumab-Naïve
[10] = Week 4, 400 mg QPM, Prior Omalizumab Use
[11] = Week 4, 400 mg QPM, omalizumab-naive participants
[12] = Week 4, 400 mg TID, ITT population
[13] = Week 4, 400 mg TID, Omalizumab-Naïve
[14] = Week 4, 400 mg TID, Prior Omalizumab Use

Compound: CC(C)(C=C(C#N)C(=O)N1CCC[C@@H](n2nc(-c3ccc(Oc4ccccc4)cc3F)c3c(N)ncnc32)C1)N1CCN(C2COC2)CC1 [rilzabrutinib, (R)-2-[3-[4-amino-3-(2-fluoro-4-phenoxy-phenyl)pyrazolo[3,4-d]pyrimidin-1-yl]piperidine-1-carbonyl]-4-methyl-4-[4-(oxetan-3-yl)piperazin-1-yl]pent-2-enenitrile]
- UAS7 Percent change from baseline Mean (SD) [1]: −48.87 (33.07) %
- UAS7 Percent change from baseline Median [1]: −48.08%
- UAS7 Change from baseline Mean (SD) [2]: −24.14 (11.99)
- UAS7 Change from baseline Median [2]: −24.50
- UAS7 Median [2]: 7.67
- UAS7 Percent change from baseline Mean (SD) [2]: −71.37 (19.75) %
- UAS7 Percent change from baseline Median [2]: −64.58%
- Non-responder, UAS7 reduction from baseline of 10 points or more [3]: 14 (40.0) n (%)
- OR for rilzabrutinib vs. placebo, UAS7 reduction of 10 points or more [3]: 2.949
- RRD (%) for rilzabrutinib vs. placebo, UAS7 reduction of 10 points or more [3]: 27.1 %
- Responder, UAS7 reduction from baseline of 10 points or more [3]: 21 (60.0) n (%)
- Non-responder, UAS7 reduction from baseline of 10 points or more [4]: 19 (46.3) n (%)
- OR for rilzabrutinib vs. placebo, UAS7 reduction of 10 points or more [4]: 1.853
- RRD (%) for rilzabrutinib vs. placebo, UAS7 reduction of 10 points or more [4]: 14.7 %
- Responder, UAS7 reduction from baseline of 10 points or more [4]: 22 (53.7) n (%)
- UAS7 Change from baseline Mean (SD) [5]: −13.49 (10.97)
- UAS7 Change from baseline Median [5]: −11.00
- UAS7 Mean (SD) [5]: 15.92 (11.71)
- UAS7 Median [5]: 14.00
- UAS7 Percent change from baseline Mean (SD) [5]: −46.55 (35.69) %
- UAS7 Percent change from baseline Median [5]: −41.94%
- UAS7 Change from baseline Mean (SD) [6]: −21.80 (16.62)
- UAS7 Change from baseline Median [6]: −26.00
- UAS7 Mean (SD) [6]: 13.60 (16.55)
- UAS7 Median [6]: 3.00
- UAS7 Percent change from baseline Mean (SD) [6]: −62.33 (45.90) %
- UAS7 Percent change from baseline Median [6]: −91.43%
- Non-responder, UAS7 reduction from baseline of 10 points or more [7]: 17 (48.6) n (%)
- OR for rilzabrutinib vs. placebo, UAS7 reduction of 10 points or more [7]: 2.046
- RRD (%) for rilzabrutinib vs. placebo, UAS7 reduction of 10 points or more [7]: 16.8 %
- Responder, UAS7 reduction from baseline of 10 points or more [7]: 18 (51.4) n (%)
- Non-responder, UAS7 reduction from baseline of 10 points or more [8]: 23 (60.5) n (%)
- OR for rilzabrutinib vs. placebo, UAS7 reduction of 10 points or more [8]: 1.224
- RRD (%) for rilzabrutinib vs. placebo, UAS7 reduction of 10 points or more [8]: 4.4 %
- Responder, UAS7 reduction from baseline of 10 points or more [8]: 15 (39.5) n (%)
- UAS7 Change from baseline Mean (SD) [9]: −9.18 (9.24)
- UAS7 Change from baseline Median [9]: −7.00
- UAS7 Mean (SD) [9]: 21.92 (8.82)
- UAS7 Median [9]: 21.00
- UAS7 Percent change from baseline Mean (SD) [9]: −27.91 (26.53) %
- UAS7 Percent change from baseline Median [9]: −21.88%
- UAS7 Change from baseline Mean (SD) [10]: −23.00 (NC)
- UAS7 Change from baseline Median [10]: −23.00
- UAS7 Mean (SD) [10]: 18.00 (NC)
- UAS7 Median [10]: 18.00
- UAS7 Percent change from baseline Mean (SD) [10]: −56.10 (NC) %
- UAS7 Percent change from baseline Median [10]: −56.10%
- Non-responder, UAS7 reduction from baseline of 10 points or more [11]: 23 (62.2) n (%)
- OR for rilzabrutinib vs. placebo, UAS7 reduction of 10 points or more [11]: 1.322
- RRD (%) for rilzabrutinib vs. placebo, UAS7 reduction of 10 points or more [11]: 6.0 %
- Responder, UAS7 reduction from baseline of 10 points or more [11]: 14 (37.8) n (%)
- Non-responder, UAS7 reduction from baseline of 10 points or more [12]: 12 (29.3) n (%)
- OR for rilzabrutinib vs. placebo, UAS7 reduction of 10 points or more [12]: 3.520
- RRD (%) for rilzabrutinib vs. placebo, UAS7 reduction of 10 points or more [12]: 29.4 %
- Responder, UAS7 reduction from baseline of 10 points or more [12]: 29 (70.7) n (%)
- UAS7 Change from baseline Mean (SD) [13]: −15.51 (9.79)
- UAS7 Change from baseline Median [13]: −14.00
- UAS7 Mean (SD) [13]: 14.65 (9.61)
- UAS7 Median [13]: 14.00
- UAS7 Percent change from baseline Mean (SD) [13]: −51.19 (29.70) %
- UAS7 Percent change from baseline Median [13]: −51.09%
- UAS7 Change from baseline Mean (SD) [14]: −22.94 (13.84)
- UAS7 Change from baseline Median [14]: −22.50
- UAS7 Mean (SD) [14]: 10.08 (10.62)
- UAS7 Median [14]: 8.58
- UAS7 Percent change from baseline Mean (SD) [14]: −67.07 (27.75) %
